Measurements from patent US20150056195A1, “COMPOSITIONS AND METHODS FOR INIHIBITING TUMORIGENICITY OF SENESCENT CANCER CELLS INDUCED BY CHEMOTHERAPY” (INSERM (INSTITUT NATIONAL DE LA SANTE ET DE LA RECHERCHE …, priority 2013, published 2015).

Key:
[1] = system: melanoma cell lines; test: Western blot of MITF, ECAD, FN1, NANOG, OCT4; format: cell-based, human; details: three melanoma cell lines exposed 48 hrs to secretome of cells rendered senescent by the drug (temozolomide 900 nM, fotemustine 40 nM)
Method: (§1) Western blots were carried out as previously described^48. Briefly, cell lysates (30 μg) were separated by SDS-PAGE, transferred on to a PVDF membrane and then exposed to the appropriate primary and HRP-linked secondary antibodies. Proteins were visualized with the ECL system (Amersham). The western blots shown are representative of at least 3 independent experiments.

[2] = system: melanoma cell lines; test: Cell counting and cell death; format: cell-based, human; details: 501mel and other melanoma cells
[3] = system: STAT3; test: Western blot of STAT3, ERK and AKT signaling; format: cell-based, human; details: 501mel; for AKT and ERK phosphorylation / STAT3 activation (tyr705-phosphorylation): IL6 20 ng/ml or CCL2 200 ng/ml; for STAT3 activation (tyr705-phosphorylation): time course
Method: as §1

[4] = system: 501mel melanoma cells; test: Xenograft tumor model in athymic nude mice; format: in vivo; details: cells exposed in vitro 48 hrs or transfected, then 4x10^6 cells/mouse subcutaneously
Method: Mice were randomly divided into 3 groups of 6 mice. 501mel melanoma cells were transfected with control (siC) or STAT3 (siSTAT3) siRNA and were exposed in vitro to the secretome of senescent melanoma cells (SSMC) or to recombinant CCL2 (200 ng/ml) or IL6 (20 ng/ml) for 48 hrs, washed twice with phosphate-buffered saline and then inoculated subcutaneously (4×10^6 cells/mouse) into 6-week-old female immune-deficient Athymic Nude FOXN1^nu mice (Harlan Laboratory). The growth tumor curves were determined by measuring the tumor volume using the equation V=(L×W2)/2. Mice were killed by CO2 inhalation and tumors were taken.

[5] = system: 501mel cells; test: CFSE labeling, number of cell divisions by FACS; format: cell-based, human; details: IL6 20 ng/ml, 72 hrs; control 5.65
Method: For the in vitro CFSE assay, cells were labeled with 2 μmol/l of CFSE according to the manufacturer's protocol (Invitrogen), then plated and treated with the secretome of control (SCMC) or senescent melanoma cells (SSMC) or recombinant IL6 (20 ng/ml). Cells were detached and analyzed by flow cytometry using MACSQuant (Miltenyi biotech). Cells were exposed to control (Cont) or senescent secretome (SSMC). Seventy-two hours later, cells were detached in phosphate-buffered saline/EDTA 2 mM and stained with DAPI to exclude dead cells. Fluorescence was measured by using the FL1/FL2 channels of a MACSQuant. Data were analyzed with MACSQuant software (Miltenyi biotech).

[6] = system: 501mel cells; test: Flow cytometry of MITF content (low-MITF population); format: cell-based, human; details: IL6 20 ng/ml, 48 hrs; control 2
[7] = system: 501mel melanoma cells; test: qRT-PCR of mesenchymal, stemness and MITF transcripts; format: cell-based, human; details: IL6 20 ng/ml, mRNA and protein levels
Method: mRNA isolation was performed with Trizol (Invitrogen), according to standard procedure. QRT-PCR was carried out with SYBR® Green I and Multiscribe Reverse Transcriptase (Promega) and monitored by an ABI Prism 7900 Sequence Detection System (Applied Biosystems, Foster City, Calif.). Detection of SB34 gene was used to normalize the results. Primer sequences for each cDNA were designed using either Primer Express Software (Applied Biosystems) or qPrimer depot (http://primerdepot.nci.nih.gov) and are available upon request.

CCOP(=O)(OCC)C(C)NC(=O)N(CCCl)N=O (stereo not drawn) [fotemustine]
E-Cadherin and MITF protein level [1]: decrease
expression of Fibronectin1 [1]: increased expression

CN[C@@H]1C[C@H]2O[C@@](C)([C@@H]1OC)n1c3ccccc3c3c4c(c5c6ccccc6n2c5c31)C(=O)NC4 [staurosporine]
cell death [2]: positive control

CCL2: recombinant human CCL2 from R&D Systems, used at 200 ng/ml
time of maximum STAT3 phosphorylation ([3]; CCL2 200 ng/ml): 60 min
AKT and ERK phosphorylation [3]: no or very weak stimulation
STAT3 activation (tyr705-phosphorylation) [3]: dramatic increase
tumor formation of xenografted 501mel cells [4]: gave rise to tumors

IL6: recombinant human IL6 from R&D Systems, used at 20 ng/ml
percentage of cells that underwent 0/1 division [5]: 18.3%
time to rapid and robust STAT3 phosphorylation ([3]; IL6 20 ng/ml): ≤ 5 min
AKT and ERK phosphorylation [3]: no or very weak stimulation
STAT3 activation (tyr705-phosphorylation) [3]: dramatic increase
tumor formation of xenografted 501mel cells [4]: gave rise to tumors
low-MITF population [6]: 7%
NANOG and OCT4 expression [7]: enhanced
amount of MITF [7]: reduced
